Assay results published in PMC11350787, “Antimicrobial Properties and Cytotoxicity of LL-37-Derived Synthetic Peptides to Treat Orthopedic Infections” (Antibiotics, 2024).
In brackets after ≈: the same amount, converted by molar mass. Peptide text beside a SMILES is read from it.

Key:
[1] = tested on: E. coli ATCC 25922; experiment: microbe, parasite or virus in culture
Description: (§1) A total of 18 bacterial strains relevant to orthopedic infections were used for microbiological tests, including 8 ATCC (American Type Culture Collection, ATCC, Manassas, VA, USA) and 10 clinical isolates (CI) from the Laboratory of Clinical Chemistry and Microbiology, IRCCS Ospedale Galeazzi–Sant’Ambrogio of Milan (Italy) strain collection. The ATCC strains were used for the first screening (MIC/MBC) of all the AMPs produced, while the clinical isolates were used for further MIC/MBC assays on selected AMPs. Among CI, S. epidermidis GOI1153754-03-14 has been already characterized and used in previous studies. All the strains were stocked at −80°C and working stocks were stored at −20 °C. At the occurrence, the bacteria were resuscitated in Brain Hearth Infusion (BHI, Millipore, Milan, Italy) broth at 37 °C for 18 h from the working stocks.
(§2) To determine the minimum inhibitory concentration (MIC) and the minimum bactericidal concentration (MBC), ISO20776-1 and Clinical and Laboratory Standards Institute guidelines were followed. A commercial synthetic LL-37 (Aurogene, Rome, Italy) was used as the control in the MIC and MBC assays. A stock solution of each AMP was prepared at 600 µg/mL to achieve a final concentration of 300 µg/mL. […] The MIC was determined according to the aforementioned standard guidelines. The MBC was determined by plating 2 µL of culture from each well of the MIC plates on a Tryptic Soy Agar (TSA, Millipore, Milan, Italy) plate and incubated for 24 h at 37 °C. The concentration at which there was no growth was recorded as MBC. Each experiment was carried out in triplicate. Representative MIC and MBC values for vancomycin and gentamicin were assessed to offer a benchmark comparison for the AMPs. Quality control was conducted with Staphylococcus aureus ATCC 29,213 and vancomycin according to EUCAST guidelines.

[2] = tested on: P. aeruginosa ATCC 27853; experiment: microbe, parasite or virus in culture
Description: as §1, §2

[3] = tested on: S. aureus ATCC 25923; experiment: microbe, parasite or virus in culture
Description: as §1, §2

[4] = tested on: S. aureus ATCC 43300; experiment: microbe, parasite or virus in culture
Description: as §1, §2

[5] = tested on: S. epidermidis GOI1153754-03-14 (CI); experiment: microbe, parasite or virus in culture
Description: as §1, §2

[6] = tested on: S. aureus ATCC 49230; experiment: microbe, parasite or virus in culture
Description: as §1, §2

[7] = tested on: S. epidermidis ATCC 14990; experiment: microbe, parasite or virus in culture
Description: as §1, §2

[8] = tested on: S. epidermidis ATCC 35984; experiment: microbe, parasite or virus in culture
Description: as §1, §2

[9] = tested on: E. coli Eco53 (CI); details: E. coli Eco53 clinical isolate; triplicate
Description: as §1, §2

[10] = tested on: E. coli Eco61 (CI); details: E. coli Eco61 clinical isolate; triplicate
Description: as §1, §2

[11] = tested on: E. coli Eco75 (CI); details: E. coli Eco75 clinical isolate; triplicate
Description: as §1, §2

[12] = tested on: P. aeruginosa Pae2 (CI); details: P. aeruginosa Pae2 clinical isolate; triplicate
Description: as §1, §2

[13] = tested on: P. aeruginosa Pae61 (CI); details: P. aeruginosa Pae61 clinical isolate; triplicate
Description: as §1, §2

[14] = tested on: P. aeruginosa Pae82 (CI); details: P. aeruginosa Pae82 clinical isolate; triplicate
Description: as §1, §2

[15] = tested on: S. aureus Sau221 (CI); details: S. aureus Sau221 clinical isolate; triplicate
Description: as §1, §2

[16] = tested on: S. aureus Sau39 (CI); details: S. aureus Sau39 clinical isolate; triplicate
Description: as §1, §2

[17] = tested on: S. aureus Sau89 (CI); details: S. aureus Sau89 clinical isolate; triplicate
Description: as §1, §2

CNC(C)C1CCC(N)C(OC2C(N)CC(N)C(OC3OCC(C)(O)C(NC)C3O)C2O)O1 (stereo not shown) [Gen, gentamicin]
Susceptibility category by MIC (EUCAST clinical breakpoints tables, v. 14) ([1]; E. coli 25922): S
MBC ([1]; Escherichia coli, ATCC25922, 24 h, read-out: Minimum Bactericidal Concentration (MBC)): 2.5 µg/mL (≈ 5.23 µM)
MIC ([1]; Escherichia coli, ATCC25922, read-out: Minimum Inhibitory Concentration (MIC)): 0.6 µg/mL (≈ 1.26 µM)
Susceptibility category by MIC (EUCAST clinical breakpoints tables, v. 14) ([2]; P. aeruginosa 27853): S
MBC ([2]; Pseudomonas aeruginosa, ATCC27853, 24 h, read-out: Minimum Bactericidal Concentration (MBC)): 2.5 µg/mL (≈ 5.23 µM)
MIC ([2]; Pseudomonas aeruginosa, ATCC27853, read-out: Minimum Inhibitory Concentration (MIC)): 0.6 µg/mL (≈ 1.26 µM)
Susceptibility category by MIC (EUCAST clinical breakpoints tables, v. 14) ([3]; S. aureus 25923): S
MBC ([3]; Staphylococcus aureus, ATCC25923, 24 h, read-out: Minimum Bactericidal Concentration (MBC)): 2.5 µg/mL (≈ 5.23 µM)
MIC ([3]; Staphylococcus aureus, ATCC25923, read-out: Minimum Inhibitory Concentration (MIC)): 0.6 µg/mL (≈ 1.26 µM)
Susceptibility category by MIC (EUCAST clinical breakpoints tables, version 14) ([4]; S. aureus 43,300 as printed in text): S
MBC ([4]; Staphylococcus aureus, ATCC43300, 24 h, read-out: Minimum Bactericidal Concentration (MBC)): 2.5 µg/mL (≈ 5.23 µM)
MIC ([4]; Staphylococcus aureus, ATCC43300, read-out: Minimum Inhibitory Concentration (MIC)): 0.6 µg/mL (≈ 1.26 µM)
Susceptibility category by MIC (EUCAST clinical breakpoints tables, v. 14) ([5]; S. epidermidis GOI1153754-03-14): R
MBC ([5]; Staphylococcus epidermidis, read-out: Minimum Bactericidal Concentration (MBC)): > 20 µg/mL
MIC ([5]; Staphylococcus epidermidis, read-out: Minimum Inhibitory Concentration (MIC)): > 20 µg/mL

CC[C@H](C)[C@H](NC(=O)[C@H](CCCCN)NC(=O)[C@H](CCC(=O)O)NC(=O)[C@H](CCCCN)NC(=O)[C@@H](N)CO)C(=O)NCC(=O)N[C@@H](CCCCN)C(=O)N[C@@H](CCC(=O)O)C(=O)N[C@@H](Cc1ccccc1)C(=O)N[C@@H](CCCCN)C(=O)N[C@@H](CCCNC(=N)N)C(=O)N[C@H](C(=O)N[C@H](C(=O)N[C@@H](CCC(N)=O)C(=O)N[C@@H](CCCNC(=N)N)C(=O)N[C@H](C(=O)N[C@@H](CCCCN)C(=O)N[C@@H](CC(=O)O)C(=O)N[C@@H](Cc1ccccc1)C(=O)N[C@@H](CC(C)C)C(=O)N[C@@H](CCCNC(=N)N)C(=O)N[C@@H](CC(N)=O)C(=O)N[C@@H](CC(C)C)C(=O)N[C@H](C(N)=O)C(C)C)[C@@H](C)CC)C(C)C)[C@@H](C)CC [SK-24] (H-SKEKIGKEFKRIVQRIKDFLRNLV-NH2)
Minimum Inhibitory Concentration (MIC) ([1]; ATCC 25922, 18 h): 75.00 µg/mL
Minimum Bactericidal Concentration (MBC) ([1]; ATCC 25922, 24 h): 75.00 µg/mL
Minimum Inhibitory Concentration (MIC) ([2]; ATCC 27853, 18 h): 150.00 µg/mL
Minimum Bactericidal Concentration (MBC) ([2]; ATCC 27853, 24 h): 150.00 µg/mL
Minimum Inhibitory Concentration (MIC) ([3]; ATCC 25923, 18 h): 150.00 µg/mL
Minimum Bactericidal Concentration (MBC) ([3]; ATCC 25923, 24 h): >300.00 µg/mL
Minimum Inhibitory Concentration (MIC) ([4]; ATCC 43300, 18 h): 150.00 µg/mL
Minimum Bactericidal Concentration (MBC) ([4]; ATCC 43300, 24 h): >300.00 µg/mL
Minimum Inhibitory Concentration (MIC) ([6]; ATCC 49230, 18 h): 75.00 µg/mL
Minimum Bactericidal Concentration (MBC) ([6]; ATCC 49230, 24 h): >300.00 µg/mL
Minimum Inhibitory Concentration (MIC) ([7]; ATCC 14990, 18 h): 18.75 µg/mL
Minimum Bactericidal Concentration (MBC) ([7]; ATCC 14990, 24 h): 150.00 µg/mL
Minimum Inhibitory Concentration (MIC) ([8]; ATCC 35984, 18 h): 37.50 µg/mL
Minimum Bactericidal Concentration (MBC) ([8]; ATCC 35984, 24 h): 300.00 µg/mL

CC[C@H](C)[C@H](NC(=O)[C@H](CCCCN)NC(=O)[C@H](CCC(=O)O)NC(=O)[C@H](CCCCN)NC(=O)[C@H](CO)NC(=O)[C@H](CCCCN)NC(=O)[C@H](CCCNC(=N)N)NC(=O)[C@H](Cc1ccccc1)NC(=O)[C@H](Cc1ccccc1)NC(=O)[C@H](CC(=O)O)NC(=O)CNC(=O)[C@H](CC(C)C)NC(=O)[C@@H](N)CC(C)C)C(=O)NCC(=O)N[C@@H](CCCCN)C(=O)N[C@@H](CCC(=O)O)C(=O)N[C@@H](Cc1ccccc1)C(=O)N[C@@H](CCCCN)C(=O)N[C@@H](CCCNC(=N)N)C(=O)N[C@H](C(=O)N[C@H](C(=O)N[C@@H](CCC(N)=O)C(=O)N[C@@H](CCCNC(=N)N)C(=O)N[C@H](C(=O)N[C@@H](CCCCN)C(=O)N[C@@H](CC(=O)O)C(=O)N[C@@H](Cc1ccccc1)C(=O)N[C@@H](CC(C)C)C(=O)N[C@@H](CCCNC(=N)N)C(=O)N[C@@H](CC(N)=O)C(=O)N[C@@H](CC(C)C)C(=O)N[C@H](C(=O)N1CCC[C@H]1C(=O)N[C@@H](CCCNC(=N)N)C(=O)N[C@H](C(=O)N[C@@H](CCC(=O)O)C(=O)N[C@@H](CO)C(=O)O)[C@@H](C)O)C(C)C)[C@@H](C)CC)C(C)C)[C@@H](C)CC [cLL-37, reference compound]
Minimum Bactericidal Concentration (MBC) ([1]; E. coli 25922, plated on TSA, 24 h 37 °C, triplicate): 75.00 µg/mL
Minimum Inhibitory Concentration (MIC) ([2]; P. aeruginosa 27853, ISO20776-1/CLSI, triplicate): 37.50 µg/mL
Minimum Bactericidal Concentration (MBC) ([2]; P. aeruginosa 27853, plated on TSA, 24 h 37 °C, triplicate): 75.00 µg/mL
Minimum Inhibitory Concentration (MIC) ([3]; S. aureus 25923, ISO20776-1/CLSI, triplicate): 37.50 µg/mL
Minimum Bactericidal Concentration (MBC) ([3]; S. aureus 25923, plated on TSA, 24 h 37 °C, triplicate): >300.00 µg/mL
Minimum Inhibitory Concentration (MIC) ([4]; S. aureus 43300, ISO20776-1/CLSI, triplicate): 75.00 µg/mL
Minimum Bactericidal Concentration (MBC) ([4]; S. aureus 43300, plated on TSA, 24 h 37 °C, triplicate): >300.00 µg/mL
Minimum Inhibitory Concentration (MIC) ([6]; S. aureus 49230, ISO20776-1/CLSI, triplicate): 75.00 µg/mL
Minimum Bactericidal Concentration (MBC) ([6]; S. aureus 49230, plated on TSA, 24 h 37 °C, triplicate): >300.00 µg/mL
Minimum Bactericidal Concentration (MBC) ([7]; S. epidermidis 14990, 2 µL from MIC wells plated on TSA, 24 h 37 °C, triplicate): 75.00 µg/mL
Minimum Inhibitory Concentration (MIC) ([7]; S. epidermidis 14990, ISO20776-1/CLSI, triplicate): 75.00 µg/mL
Minimum Inhibitory Concentration (MIC) ([8]; S. epidermidis 35984, ISO20776-1/CLSI, triplicate): 9.38 µg/mL
Minimum Bactericidal Concentration (MBC) ([8]; S. epidermidis 35984, plated on TSA, 24 h 37 °C, triplicate): >300.00 µg/mL
Minimum Bactericidal Concentration (MBC) ([5]; S. epidermidis GOI1153754-03-14 clinical isolate, triplicate): >300.00 µg/mL
Minimum Bactericidal Concentration (MBC) [9]: 300.00 µg/mL
Minimum Inhibitory Concentration (MIC) [9]: 37.50 µg/mL
Minimum Bactericidal Concentration (MBC) [10]: 75.00 µg/mL
Minimum Inhibitory Concentration (MIC) [10]: 37.50 µg/mL
Minimum Bactericidal Concentration (MBC) [11]: 300.00 µg/mL
Minimum Inhibitory Concentration (MIC) [11]: 37.50 µg/mL
Minimum Bactericidal Concentration (MBC) [12]: 75.00 µg/mL
Minimum Inhibitory Concentration (MIC) [12]: 75.00 µg/mL
Minimum Bactericidal Concentration (MBC) [13]: 150.00 µg/mL
Minimum Inhibitory Concentration (MIC) [13]: 37.50 µg/mL
Minimum Bactericidal Concentration (MBC) [14]: 75.00 µg/mL
Minimum Inhibitory Concentration (MIC) [14]: 37.50 µg/mL
Minimum Bactericidal Concentration (MBC) [15]: >300.00 µg/mL
Minimum Inhibitory Concentration (MIC) [15]: >300.00 µg/mL
Minimum Bactericidal Concentration (MBC) [16]: >300.00 µg/mL
Minimum Inhibitory Concentration (MIC) [16]: 150.00 µg/mL
Minimum Bactericidal Concentration (MBC) [17]: >300.00 µg/mL
Minimum Inhibitory Concentration (MIC) [17]: >300.00 µg/mL
